Tests used:
[1] = target: T1, T. brucei UDP-galactose 4′ epimerase (TbGalE) (Trypanosoma brucei, UniProt Q8T8E9); assay: enzyme inhibition assay (details in Text S1); assay type: biochemical
T1 construct: gene galE; isolated protein; construct and host not described in main text (assay details in Text S1); 1GY8 is the docked crystal structure
T1 sequence (Q8T8E9 1-395): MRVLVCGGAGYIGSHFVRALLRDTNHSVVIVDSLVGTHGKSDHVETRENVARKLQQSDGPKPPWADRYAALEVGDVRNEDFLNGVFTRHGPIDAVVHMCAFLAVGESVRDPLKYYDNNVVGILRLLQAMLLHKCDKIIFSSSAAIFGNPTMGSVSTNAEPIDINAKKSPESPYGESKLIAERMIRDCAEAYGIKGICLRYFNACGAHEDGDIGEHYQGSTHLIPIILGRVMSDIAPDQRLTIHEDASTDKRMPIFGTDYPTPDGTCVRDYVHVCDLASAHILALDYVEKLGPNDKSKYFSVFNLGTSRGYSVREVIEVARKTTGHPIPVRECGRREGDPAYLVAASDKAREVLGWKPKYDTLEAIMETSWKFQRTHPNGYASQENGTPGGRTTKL

[2] = target: T2, H. sapiens mitochondrial 2-enoyl thioester reductase (HsETR1) (Homo sapiens, UniProt Q9BV79); assay: enzyme inhibition assay (details in Text S1); assay type: biochemical
T2 construct: gene MECR; isolated protein; construct and host not described in main text (assay details in Text S1); 1ZSY is the docked crystal structure
T2 sequence (Q9BV79 54-373): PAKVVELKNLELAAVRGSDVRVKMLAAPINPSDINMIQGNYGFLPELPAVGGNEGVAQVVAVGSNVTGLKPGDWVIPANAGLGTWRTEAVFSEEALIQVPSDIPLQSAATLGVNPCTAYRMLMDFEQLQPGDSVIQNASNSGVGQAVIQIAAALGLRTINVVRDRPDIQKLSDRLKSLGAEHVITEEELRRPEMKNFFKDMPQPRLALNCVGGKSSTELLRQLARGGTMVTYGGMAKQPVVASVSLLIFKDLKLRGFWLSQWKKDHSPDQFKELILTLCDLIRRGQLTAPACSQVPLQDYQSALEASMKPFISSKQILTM

O=S(=O)(O)c1cc(O)c2c(O)c(N=Nc3cccc4ccccc34)c(S(=O)(=O)O)cc2c1 [compound 1, 4,5-dihydroxy-3-(1-naphthyldiazenyl)-2,7-naphthalenedisulfonic acid]
IC50 [1]: 0.7 ± 0.2 µM
IC50 [2]: ~33.5 µM
